In US10519134B2, “Pyrazole compounds and methods of making and using same” (Lundbeck La Jolla Research Center, Inc., priority 2015, dated 2019) one finds IC50 and inhibition data, which are given here for 16 compounds.

The structures appear in SMILES notation. Where only a bound is given, the exact number is not on record here.

Test [1] concerns the target T1, MAGL (Mus musculus, UniProt O35678).
T1 construct: Proteomes (mouse brain membrane fraction or cell lysates); from tissue; host or cells: mouse brain membrane fraction (or cell lysates)
T1 sequence (O35678 1-303): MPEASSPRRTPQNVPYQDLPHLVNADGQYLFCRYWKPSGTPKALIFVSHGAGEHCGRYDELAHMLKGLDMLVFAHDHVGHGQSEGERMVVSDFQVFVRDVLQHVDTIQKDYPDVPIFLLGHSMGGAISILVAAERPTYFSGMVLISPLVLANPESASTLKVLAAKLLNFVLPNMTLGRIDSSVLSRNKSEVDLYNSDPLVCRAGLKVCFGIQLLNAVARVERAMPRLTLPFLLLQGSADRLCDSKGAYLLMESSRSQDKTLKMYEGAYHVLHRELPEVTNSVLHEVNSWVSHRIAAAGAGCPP
Nature of the test: In vitro competitive activity-based protein profiling (mouse), MAGL gel band. Type of test: biochemical. The settings on record: for IC50: mouse; for inhibition at 1 µM: read-out: MAGL % inh. 1 μM. An outline of the steps: (§1)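 Mouse brain membrane proteome or cell lysate (1.0 mg/mL protein) preincubated 30 min at 37 °C with varying inhibitor concentrations, then labelled 30 min at 37 °C with FP-Rh or HT-01 probe (50 μM stock). After SDS-PAGE, activity taken from fluorescent intensity of the MAGL and FAAH gel bands.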

The next test addresses T2, FAAH (Mus musculus, UniProt O08914).
T2 construct: Proteomes (mouse brain membrane fraction or cell lysates); from tissue; host or cells: mouse brain membrane fraction (or cell lysates)
T2 sequence (O08914 1-579): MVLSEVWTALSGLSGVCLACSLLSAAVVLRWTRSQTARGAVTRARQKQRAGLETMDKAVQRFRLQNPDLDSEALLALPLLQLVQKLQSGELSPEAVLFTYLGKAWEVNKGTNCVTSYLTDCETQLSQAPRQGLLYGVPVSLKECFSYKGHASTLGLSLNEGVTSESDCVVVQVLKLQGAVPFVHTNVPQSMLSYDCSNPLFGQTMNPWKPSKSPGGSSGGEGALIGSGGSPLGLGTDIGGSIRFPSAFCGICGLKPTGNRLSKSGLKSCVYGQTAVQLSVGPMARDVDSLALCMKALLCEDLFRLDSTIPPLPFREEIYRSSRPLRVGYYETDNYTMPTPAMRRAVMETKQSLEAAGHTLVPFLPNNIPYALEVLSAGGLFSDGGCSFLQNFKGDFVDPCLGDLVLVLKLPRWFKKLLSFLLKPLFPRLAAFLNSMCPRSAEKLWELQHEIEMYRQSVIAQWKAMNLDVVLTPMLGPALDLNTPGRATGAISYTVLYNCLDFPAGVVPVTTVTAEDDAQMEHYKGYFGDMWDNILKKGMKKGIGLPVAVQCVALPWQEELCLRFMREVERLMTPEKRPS
Nature of the test: In vitro competitive activity-based protein profiling (mouse), FAAH gel band. Type of test: biochemical. The conditions noted are these: for IC50: mouse; for inhibition at 1 µM: read-out: FAAH % inh. 1 μM. An outline of the steps:
as §1

Test [2] deals with T1, MAGL. Nature of the test: Mouse brain proteomes from inhibitor treated mice (oral gavage, sacrificed 4 h after administration). The test is classed as in vivo. The settings on record: read-out: MAGL % inh. 5 mg/kg. An outline of the steps: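 Brains were collected 4 h after oral gavage dosing of wild-type C57Bl/6J mice, vehicle polyethylene glycol. Proteomes from these brains were then analyzed for MAGL and other serine hydrolase activity.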

Consider `CC(=O)Nc1ccn(C(=O)N2CCC3(CCCN3Cc3cc(Oc4cncnc4)cc(C(F)(F)F)c3)CC2)n1` [Example 84, N-(1-(1-(3-(pyrimidin-5-yloxy)-5-(trifluoromethyl)benzyl)-1,8-diazaspiro[4.5]decane-8-carbonyl)-1H-pyrazol-3-yl)acetamide], for which, on MAGL [1], the IC50 is no more than 100 nM and the inhibition at 1 µM is no less than 75%. On FAAH, the IC50 lay within 1000 to 10000 nM and the inhibition at 1 µM was 0 to 25%. In addition, at MAGL [2], the inhibition at 5 mg/kg fell in the range of 0 to 25%.

Consider `CC(=O)Nc1ccn(C(=O)N2CCC3(CCCN3Cc3ccc(C(F)(F)F)cc3Oc3nc4ccccc4s3)CC2)n1` [Example 85, N-(1-(1-(2-(benzo[d]thiazol-2-yloxy)-4-(trifluoromethyl)benzyl)-1,8-diazaspiro[4.5]decane-8-carbonyl)-1H-pyrazol-3-yl)acetamide], for which, on MAGL [1], the IC50 is no more than 100 nM and the inhibition at 1 µM was no less than 75%. For the same compound, on FAAH, the 50% inhibitory concentration (IC50) lay in the range of 1000 to 10000 nM and the inhibition at 1 µM fell in the range of 0 to 25%. Also, the inhibition at 5 mg/kg on MAGL [2] fell in the range of 0 to 25%.

On to `CC(=O)Nc1ccn(C(=O)N2CCC3(CCCN3Cc3cc(OC4CCS(=O)(=O)CC4)cc(C(F)(F)F)c3)CC2)n1` [Example 88, N-(1-(1-(3-((1,1-dioxidotetrahydro-2H-thiopyran-4-yl)oxy)-5-(trifluoromethyl)benzyl)-1,8-diazaspiro[4.5]decane-8-carbonyl)-1H-pyrazol-3-yl)acetamide], for which, at MAGL [1], the IC50 is no more than 100 nM and the inhibition at 1 µM was no less than 75%. Also, at FAAH, the IC50 was in the range of 1000 to 10000 nM and the inhibition at 1 µM lay in the range of 0 to 25%. Besides, the inhibition at 5 mg/kg at MAGL [2] lay within 0 to 25%.

Take `CC(=O)Nc1ccn(C(=O)N2CCC3(CCCN3Cc3cc(OCC(=O)N4CCCC4)cc(C(F)(F)F)c3)CC2)n1` [Example 90, N-(1-(1-(3-(2-oxo-2-(pyrrolidin-1-yl)ethoxy)-5-(trifluoromethyl)benzyl)-1,8-diazaspiro[4.5]decane-8-carbonyl)-1H-pyrazol-3-yl)acetamide]: at MAGL [1], the IC50 was no more than 100 nM and the inhibition at 1 µM was no less than 75%. Moreover, on FAAH, the IC50 lay in the range of 1000 to 10000 nM and the inhibition at 1 µM was 0 to 25%. In addition, on MAGL [2], the inhibition at 5 mg/kg was 0 to 25%.

For `CC(=O)Nc1ccn(C(=O)N2CCC3(CCCN3Cc3ccc(C(F)(F)F)c(C)c3)CC2)n1` [Example 93, N-(1-(1-(3-methyl-4-(trifluoromethyl)benzyl)-1,8-diazaspiro[4.5]decane-8-carbonyl)-1H-pyrazol-3-yl)acetamide], on MAGL [1], the IC50 was no more than 100 nM and the inhibition at 1 µM is no less than 75%. For the same compound, at FAAH, the IC50 lay within 1000 to 10000 nM and the inhibition at 1 µM was in the range of 0 to 25%. At MAGL [2], the inhibition at 5 mg/kg is 50 to 75%.

As to `CCc1cc(CN2CCCC23CCN(C(=O)n2ccc(NC(C)=O)n2)CC3)ccc1F` [Example 95, N-(1-(1-(3-ethyl-4-fluorobenzyl)-1,8-diazaspiro[4.5]decane-8-carbonyl)-1H-pyrazol-3-yl)acetamide], at MAGL [1], the IC50 was no more than 100 nM and the inhibition at 1 µM was no less than 75%. Also, on FAAH, the IC50 was in the range of 1000 to 10000 nM and the inhibition at 1 µM fell in the range of 0 to 25%. Besides, the inhibition at 5 mg/kg at MAGL [2] was no less than 75%.

With `CC(=O)Nc1ccn(C(=O)N2CCC3(CCCN3Cc3ccc(N4CCOCC4)c(C(F)(F)F)c3)CC2)n1` [Example 101, N-(1-(1-(4-morpholino-3-(trifluoromethyl)benzyl)-1,8-diazaspiro[4.5]decane-8-carbonyl)-1H-pyrazol-3-yl)acetamide], on MAGL [1], the IC50 is no more than 100 nM and the inhibition at 1 µM was no less than 75%. Also, at FAAH, the IC50 was 1000 to 10000 nM and the inhibition at 1 µM lay within 0 to 25%. Also, the inhibition at 5 mg/kg at MAGL [2] was in the range of 25 to 50%.

On to `CC(=O)Nc1ccn(C(=O)N2CCC3(CCCN3Cc3ccc(N4CCCC4)c(C(F)(F)F)c3)CC2)n1` [Example 102, N-(1-(1-(4-(pyrrolidin-1-yl)-3-(trifluoromethyl)benzyl)-1,8-diazaspiro[4.5]decane-8-carbonyl)-1H-pyrazol-3-yl)acetamide], for which, at MAGL [1], the IC50 is no more than 100 nM and the inhibition at 1 µM was no less than 75%. Moreover, at FAAH, the IC50 fell in the range of 1000 to 10000 nM and the inhibition at 1 µM fell in the range of 0 to 25%. Moreover, the inhibition at 5 mg/kg at MAGL [2] lay in the range of 0 to 25%.

For `CC(=O)Nc1ccn(C(=O)N2CCC3(CCCN3Cc3ccc(Cl)c(N4CCOCC4)c3)CC2)n1` [Example 103, N-(1-(1-(4-chloro-3-morpholinobenzyl)-1,8-diazaspiro[4.5]decane-8-carbonyl)-1H-pyrazol-3-yl)acetamide], at MAGL [1], the IC50 is no more than 100 nM and the inhibition at 1 µM is no less than 75%. Also, on FAAH, the IC50 is 1000 to 10000 nM and the inhibition at 1 µM fell in the range of 0 to 25%. Moreover, the inhibition at 5 mg/kg on MAGL [2] fell in the range of 0 to 25%.

As to `CC(=O)Nc1ccn(C(=O)N2CCC3(CCCN3Cc3ccc(Cl)c(N4CCCC4)c3)CC2)n1` [Example 104, N-(1-(1-(4-chloro-3-(pyrrolidin-1-yl)benzyl)-1,8-diazaspiro[4.5]decane-8-carbonyl)-1H-pyrazol-3-yl)acetamide], on MAGL [1], the IC50 was no more than 100 nM and the inhibition at 1 µM is no less than 75%. Moreover, on FAAH, the IC50 was in the range of 1000 to 10000 nM and the inhibition at 1 µM was 0 to 25%. For the same compound, the inhibition at 5 mg/kg at MAGL [2] lay in the range of 0 to 25%.

On to `CC(=O)Nc1ccn(C(=O)N2CCC3(CCCN3Cc3ccc(C(F)(F)F)c(N4CCOCC4)c3)CC2)n1` [Example 105, N-(1-(1-(3-morpholino-4-(trifluoromethyl)benzyl)-1,8-diazaspiro[4.5]decane-8-carbonyl)-1H-pyrazol-3-yl)acetamide], for which, at MAGL [1], the IC50 is no more than 100 nM and the inhibition at 1 µM was no less than 75%. Further, on FAAH, the IC50 lay within 1000 to 10000 nM and the inhibition at 1 µM lay within 0 to 25%. Besides, the inhibition at 5 mg/kg on MAGL [2] fell in the range of 25 to 50%.

In the case of `CC(=O)Nc1ccn(C(=O)N2CCC3(CCCN3Cc3ccc(C(F)(F)F)c(N4CCCC4)c3)CC2)n1` [Example 106, N-(1-(1-(3-(pyrrolidin-1-yl)-4-(trifluoromethyl)benzyl)-1,8-diazaspiro[4.5]decane-8-carbonyl)-1H-pyrazol-3-yl)acetamide], on MAGL [1], the IC50 is no more than 100 nM and the inhibition at 1 µM is no less than 75%. Further, on FAAH, the IC50 lay in the range of 1000 to 10000 nM and the inhibition at 1 µM was in the range of 0 to 25%. Besides, the inhibition at 5 mg/kg at MAGL [2] fell in the range of 25 to 50%.

For `CC(=O)Nc1ccn(C(=O)N2CCC3(CCCN3Cc3ccc(C(F)(F)F)c(C(N)=O)c3)CC2)n1` [Example 107, 5-((8-(3-acetamido-1H-pyrazole-1-carbonyl)-1,8-diazaspiro[4.5]decan-1-yl)methyl)-2-(trifluoromethyl)benzamide], on MAGL [1], the IC50 was in the range of 100 to 1000 nM and the inhibition at 1 µM is no less than 75%. Besides, on FAAH, the IC50 was 1000 to 10000 nM and the inhibition at 1 µM is 0 to 25%. Further, the inhibition at 5 mg/kg at MAGL [2] is 0 to 25%.

With `CC(=O)Nc1ccn(C(=O)N2CCC3(CCCN3Cc3ccc(C(N)=O)c(C(F)(F)F)c3)CC2)n1` [Example 109, 4-((8-(3-acetamido-1H-pyrazole-1-carbonyl)-1,8-diazaspiro[4.5]decan-1-yl)methyl)-2-(trifluoromethyl)benzamide], at MAGL [1], the IC50 was no more than 100 nM and the inhibition at 1 µM was no less than 75%. On FAAH, the IC50 was 1000 to 10000 nM and the inhibition at 1 µM fell in the range of 0 to 25%. Besides, the inhibition at 5 mg/kg on MAGL [2] was in the range of 0 to 25%.

Regarding `CS(=O)(=O)Nc1ccn(C(=O)N2CCN(Cc3cccc(Cl)c3N3CC[C@H](CF)C3)CC2)n1` [Example 121, (S)-N-(1-(4-(3-chloro-2-(3-(fluoromethyl)pyrrolidin-1-yl)benzyl)piperazine-1-carbonyl)-1H-pyrazol-3-yl) methanesulfonamide], the IC50 at MAGL [1] was no more than 100 nM; at FAAH, 1000 to 10000 nM. For the same compound, the figures for the inhibition at 1 µM at MAGL [1] and at FAAH were no less than 75% and 0 to 25%, respectively. Moreover, on MAGL [2], the inhibition at 5 mg/kg lay in the range of 50 to 75%.

On to `CS(=O)(=O)Nc1ccn(C(=O)N2CCN(Cc3ccc(Cl)cc3N3CCCC3)CC2)n1` [Example 127, N-(1-(4-(4-chloro-2-(pyrrolidin-1-yl)benzyl)piperazine-1-carbonyl)-1H-pyrazol-3-yl) methanesulfonamide], for which the IC50 on MAGL [1] is no more than 100 nM; on FAAH, 1000 to 10000 nM. For the same compound, the values for the inhibition at 1 µM on MAGL [1] and at FAAH were no less than 75% and 0 to 25%, respectively. Besides, on MAGL [2], the inhibition at 5 mg/kg is no less than 75%.
